How the values were obtained:
[1] = system: FGF signaling (Tg(Dusp6:d2EGFP)pt6 reporter); test: Transgenic zebrafish chemical screen, d2EGFP fluorescence; type: in vivo; settings: for d2EGFP fluorescence in treated transgenic embryos: 24 hpf embryos, 6-8 hours, analogs even at four-fold higher concentrations
Method: Tg(dusp6:d2EGFP)pt6 embryos were obtained by natural crossings and incubated at 28.5° C. until they reached 24 hpf. Five transgenic embryos were placed into each well from a 96-well plate in 200 μl of E3, and a 0.5% DMSO solution was added along with compound from each library at 10 μM. The NCI diversity set (NCl/NIH), the Natural Products library (MicroSource Discovery Systems Inc.) and Phosphatase targeted set (Chembridge) were screened in this study. (E)-2-Benzylidene-3-(cyclohexylamino)-2,3-dihydro-1H-inden-1-one (BCI; also known as NSC150117) was identified as a compound that enhanced fluorescence in treated transgenic embryos. Treated embryos were photographed under the same settings for exposure, gain and magnification for each picture using a MZFLIII (Leica) microscrope and fluorescent illumination for GFP using endow cube (Chroma Technology Corp., Rockingham, Vt.). Qimaging software and the Retiga Exi camera (Qimaging, Burnaby, BC Canada) were used to capture the images.
We previously described the generation of a transgenic zebrafish line, (Tg(Dusp6:d2EGFP)pt6) that expresses destabilized green fluorescent protein (d2EGFP) under the control of FGF signaling (Molina, G. A., et al. BMC Dev Biol 7, 62 (2007)). Using Tg(Dusp6:d2EGFP) embryos as a biosensor for FGF signaling, we screened over 5000 diverse compounds assembled from chemical libraries for small molecule modulators of this pathway. Five transgenic embryos at 24 hours post fertilization (hpf) were arrayed into each well of a 96-well plate containing test compounds at 10 μM. d2EGFP intensity in treated embryos was visually analyzed and compared to vehicle control (0.5% DMSO) after 6-8 hours. […] To confirm that BCI hyperactivated FGF signaling, we treated embryos prior to gastrulation (5 hpf), and we analyzed by whole mount in situ hybridization, the expression of ntl (zebrafish brachyury), a known FGF target gene (Latinkic, B. V. et al. Genes Dev 11, 3265-76 (1997)). […] We next determined the BCI structural features required to enhance FGF signaling. Two analogs, (E)-2-benzylidene-2,3-dihydro-1H-inden-1-one (BI) lacking the cyclohexylamino group, and 3-(cyclohexylamino)-2,3-dihydro-1H-inden-1-one (ICD) lacking the benzylidene group were synthesized).

[2] = target: T1, recombinant His-tagged Dusp6 (Homo sapiens, UniProt Q16828); test: In vitro pERK2 dephosphorylation assay (Western blot); type: biochemical; settings: 100 μM
T1 construct: His
T1 sequence (Q16828 1-381): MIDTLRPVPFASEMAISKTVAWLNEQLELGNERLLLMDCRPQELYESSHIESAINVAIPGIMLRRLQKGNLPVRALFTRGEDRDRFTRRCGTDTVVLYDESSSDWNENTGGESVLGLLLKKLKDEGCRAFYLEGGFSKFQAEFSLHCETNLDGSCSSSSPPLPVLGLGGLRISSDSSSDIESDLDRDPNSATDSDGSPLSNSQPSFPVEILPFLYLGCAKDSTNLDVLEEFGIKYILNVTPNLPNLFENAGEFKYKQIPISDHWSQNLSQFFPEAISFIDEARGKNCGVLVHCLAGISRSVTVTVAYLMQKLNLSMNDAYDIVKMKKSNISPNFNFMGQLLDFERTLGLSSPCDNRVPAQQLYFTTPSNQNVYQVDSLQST
Method: ERK dephosphorylation assays were performed as described previously with several modifications (Lazo, J. S. et al. J Pharmacol Exp Ther 322, 940-7 (2007)). Briefly, recombinant His-tagged Dusp6 (1.5 ng) was incubated for 20 minutes at 25° C. in the presence of 100 μM BCI, 100 μM ICD or 1 mM sodium orthovanadate. Tyrosine and threonine phosphorylated ERK2 (New England Biolabs; 10 ng) was added and reaction mixture (30 mM Tris-HCl, pH 7.0, 75 mM NaCl, 0.67 mM EDTA, 1 mM DTT and 0.033% bovine serum albumin) was incubated at 25° C. for a further 60 min. ERK desphosphorylation was determined by Western blotting using 10% Tris-glycine gels and a monoclonal phospho-p44/42 MAPK antibody (Cell Signaling) at 1:1000 dilution. Total ERK was measured as a loading control using an anti-ERK antibody (Cell Signaling).

Dusp6 = target: T2, Dusp6 (Homo sapiens, UniProt Q16828); test: Basal Dusp6 dephosphorylation of OMFP; type: biochemical; parameters: His; made in house; settings: 100 μM
T2 sequence (Q16828 1-381): T1 sequence (Q16828 1-381)
Method: For OMFP based ERK2 induced activation of Dusp6, recombinant His-tagged Dusp6 was expressed from a bacterial expression vector and 250 ng were incubated with the indicated concentrations of NSC95397 or BCI. OMFP was added at its apparent Km (100 μM) (Vogt, A. et al. J Biol Chem 280, 19078-86 (2005)). The final reaction volume was 15 μl. After 1 h at RT, OMF fluorescence was measured on an M5 multimode reader (Molecular Devices) at excitation/emission wavelengths of 485/525 nm. To assay activated Dusp6, 210 ng or 2.1 μg of recombinant ERK2 (Cell signaling) were added to Dusp6(210 ng)/BCI(100 μM) mixtures to measure activation at 1:1 and 1:10 ratio of substrate to enzyme. OMFP was immediately added and fluorescence (ex485/em525 nm) was read every 10 min for 130 min. Fold activation was calculated at 60 mins in each experiment.

SMILES	d2EGFP fluorescence in treated transgenic embryos [1]	suppression of Dusp6-mediated pERK2 dephosphorylation [2]	inhibition of basal Dusp6 activity toward OMFP (Dusp6)	d2EGFP expression in the MHB of Tg(Dusp6:d2EGFP); ace mutant embryos ([1]; BCI 10 μM, Fgf8-deficient embryos)
O=C1CC(NC2CCCCC2)c2ccccc21 (stereo not drawn) [Compound 17, 3-(Cyclohexylamino)-2,3-dihydro-1H-inden-1-one]	inactive	did not	–	–
O=C1/C(=C/c2ccccc2)C(NC2CCCCC2)c2ccccc21 (stereo not drawn) [Compound 3, (E)-2-benzylidene-3-(cyclohexylamino)-2,3-dihydro-1H-inden-1-one]	enhanced d2EGFP fluorescence in a concentration-dependent manner	specifically suppressed Dusp6 activity	did not inhibit basal Dusp6 activity	did not induce d2EGFP expression

From patent publication US9127016B2, “Small molecule inhibitors of Dusp6 and uses therefor” (University of Pittsburgh—Of the Commonwealth System of …, priority 2009, dated 2015)
